Tests used:
Type in all cases: in vivo
[1] = tested on: redroot pigweed (Amaranthus retroflexus); assay: Test G Pre-Emergence Protocol; details: Amaranthus retroflexus, pre-emergence, 312 h, evaluated after 13 days; for pest or weed control at 15.625 g/ha: 15.625 g ai/ha; for pest or weed control at 15.625 g/ha / pest or weed control at 250 g/ha: read-out: Pigweed, Redroot damage rating (100=total damage to plant; 0=no damage to plant); for pest or weed control at 62.5 g/ha: 62.5 g ai/ha, 100=total damage to plant, 0=no damage to plant, read-out: Pigweed, Redroot damage rating; for pest or weed control at 250 g/ha: 250 g ai/ha
Summary of the method: (§1)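 Pre-emergence spray, 15.625/62.5/250 g/ha, vehicle acetone:water 50:50 + 0.5% Tween 20, applied 1 d after sowing. Glasshouse 24/16° C, 14 h light, 65% RH, watered twice daily. Visual damage rating at 13 d, 0–100 scale.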

[2] = tested on: corn (Zea mays); assay: Test G Pre-Emergence Protocol; details: Zea mays, pre-emergence, 312 h, evaluated after 13 days; for plant injury at 15.625 g/ha: 15.625 g ai/ha; for plant injury at 15.625 g/ha / plant injury at 250 g/ha: read-out: Corn damage rating (100=total damage to plant; 0=no damage to plant); for plant injury at 62.5 g/ha: 62.5 g ai/ha, 100=total damage to plant, 0=no damage to plant, read-out: Corn damage rating; for plant injury at 250 g/ha: 250 g ai/ha
Summary of the method: as §1

[3] = tested on: ivy-leaved morning glory (Ipomoea hederacea); assay: Test G Pre-Emergence Protocol; details: Ipomoea, pre-emergence, 312 h, evaluated after 13 days; for pest or weed control at 15.625 g/ha: 15.625 g ai/ha; for pest or weed control at 15.625 g/ha / pest or weed control at 250 g/ha: read-out: Morningglory, Ivy-leaved damage rating (100=total damage to plant; 0=no damage to plant); for pest or weed control at 62.5 g/ha: 62.5 g ai/ha, 100=total damage to plant, 0=no damage to plant, read-out: Morningglory, Ivy-leaved damage rating; for pest or weed control at 250 g/ha: 250 g ai/ha
Summary of the method: as §1

[4] = tested on: giant foxtail (Setaria faberi); assay: Test G Pre-Emergence Protocol; details: Setaria faberi, pre-emergence, 312 h, evaluated after 13 days; for pest or weed control at 15.625 g/ha: 15.625 g ai/ha; for pest or weed control at 15.625 g/ha / pest or weed control at 250 g/ha: read-out: Foxtail, Giant damage rating (100=total damage to plant; 0=no damage to plant); for pest or weed control at 62.5 g/ha: 62.5 g ai/ha, 100=total damage to plant, 0=no damage to plant, read-out: Foxtail, Giant damage rating; for pest or weed control at 250 g/ha: 250 g ai/ha
Summary of the method: as §1

[5] = tested on: barnyardgrass (Echinochloa crus-galli); assay: Test G Pre-Emergence Protocol; details: Echinochloa crus-galli, pre-emergence, 312 h, evaluated after 13 days; for pest or weed control at 15.625 g/ha: 15.625 g ai/ha; for pest or weed control at 15.625 g/ha / pest or weed control at 250 g/ha: read-out: Barnyardgrass damage rating (100=total damage to plant; 0=no damage to plant); for pest or weed control at 62.5 g/ha: 62.5 g ai/ha, 100=total damage to plant, 0=no damage to plant, read-out: Barnyardgrass damage rating; for pest or weed control at 250 g/ha: 250 g ai/ha
Summary of the method: as §1

[6] = tested on: velvetleaf (Abutilon theophrasti); assay: Test G Pre-Emergence Protocol; details: Abutilon theophrasti, pre-emergence, 312 h, evaluated after 13 days; for pest or weed control at 15.625 g/ha: 15.625 g ai/ha; for pest or weed control at 15.625 g/ha / pest or weed control at 250 g/ha: read-out: Velvetleaf damage rating (100=total damage to plant; 0=no damage to plant); for pest or weed control at 62.5 g/ha: 62.5 g ai/ha, 100=total damage to plant, 0=no damage to plant, read-out: Velvetleaf damage rating; for pest or weed control at 250 g/ha: 250 g ai/ha
Summary of the method: as §1

[7] = tested on: redroot pigweed (Amaranthus retroflexus); assay: Test G Post-Emergence Protocol; details: Amaranthus retroflexus, post-emergence, 312 h, read-out: Pigweed, Redroot damage rating; for pest or weed control at 15.625 g/ha: 15.625 g ai/ha, evaluated after 13 days (100=total damage to plant; 0=no damage to plant); for pest or weed control at 62.5 g/ha: 62.5 g ai/ha; for pest or weed control at 62.5 g/ha / pest or weed control at 250 g/ha: evaluated after 13 days, 100=total damage to plant, 0=no damage to plant; for pest or weed control at 250 g/ha: 250 g ai/ha
Summary of the method: (§2)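 Scores run 0 (no damage) to 100 (total damage) and were taken 13 days after spraying. Plants had been raised in pots for 8 days under glasshouse control (24/16 °C, 14 h photoperiod, 65% humidity) and then treated at 15.625, 62.5 or 250 g/ha.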

[8] = tested on: corn (Zea mays); assay: Test G Post-Emergence Protocol; details: Zea mays, post-emergence, 312 h, read-out: Corn damage rating; for plant injury at 15.625 g/ha: 15.625 g ai/ha, evaluated after 13 days (100=total damage to plant; 0=no damage to plant); for plant injury at 62.5 g/ha: 62.5 g ai/ha; for plant injury at 62.5 g/ha / plant injury at 250 g/ha: evaluated after 13 days, 100=total damage to plant, 0=no damage to plant; for plant injury at 250 g/ha: 250 g ai/ha
Summary of the method: as §2

[9] = tested on: ivy-leaved morning glory (Ipomoea hederacea); assay: Test G Post-Emergence Protocol; details: Ipomoea, post-emergence, 312 h, read-out: Morningglory, Ivy-leaved damage rating; for pest or weed control at 15.625 g/ha: 15.625 g ai/ha, evaluated after 13 days (100=total damage to plant; 0=no damage to plant); for pest or weed control at 62.5 g/ha: 62.5 g ai/ha; for pest or weed control at 62.5 g/ha / pest or weed control at 250 g/ha: evaluated after 13 days, 100=total damage to plant, 0=no damage to plant; for pest or weed control at 250 g/ha: 250 g ai/ha
Summary of the method: as §2

[10] = tested on: giant foxtail (Setaria faberi); assay: Test G Post-Emergence Protocol; details: Setaria faberi, post-emergence, 312 h, read-out: Foxtail, Giant damage rating; for pest or weed control at 15.625 g/ha: 15.625 g ai/ha, evaluated after 13 days (100=total damage to plant; 0=no damage to plant); for pest or weed control at 62.5 g/ha: 62.5 g ai/ha; for pest or weed control at 62.5 g/ha / pest or weed control at 250 g/ha: evaluated after 13 days, 100=total damage to plant, 0=no damage to plant; for pest or weed control at 250 g/ha: 250 g ai/ha
Summary of the method: as §2

[11] = tested on: barnyardgrass (Echinochloa crus-galli); assay: Test G Post-Emergence Protocol; details: Echinochloa crus-galli, post-emergence, 312 h, read-out: Barnyardgrass damage rating; for pest or weed control at 15.625 g/ha: 15.625 g ai/ha, evaluated after 13 days (100=total damage to plant; 0=no damage to plant); for pest or weed control at 62.5 g/ha: 62.5 g ai/ha; for pest or weed control at 62.5 g/ha / pest or weed control at 250 g/ha: evaluated after 13 days, 100=total damage to plant, 0=no damage to plant; for pest or weed control at 250 g/ha: 250 g ai/ha
Summary of the method: as §2

[12] = tested on: velvetleaf (Abutilon theophrasti); assay: Test G Post-Emergence Protocol; details: Abutilon theophrasti, post-emergence, 312 h, read-out: Velvetleaf damage rating; for pest or weed control at 15.625 g/ha: 15.625 g ai/ha, evaluated after 13 days (100=total damage to plant; 0=no damage to plant); for pest or weed control at 62.5 g/ha: 62.5 g ai/ha; for pest or weed control at 62.5 g/ha / pest or weed control at 250 g/ha: evaluated after 13 days, 100=total damage to plant, 0=no damage to plant; for pest or weed control at 250 g/ha: 250 g ai/ha
Summary of the method: as §2

SMILES	pest or weed control at 15.625 g/ha [1] [%]	pest or weed control at 62.5 g/ha [1] [%]	pest or weed control at 250 g/ha [1] [%]	plant injury at 15.625 g/ha [2] [%]	plant injury at 62.5 g/ha [2] [%]	plant injury at 250 g/ha [2] [%]	pest or weed control at 15.625 g/ha [3] [%]	pest or weed control at 62.5 g/ha [3] [%]	pest or weed control at 250 g/ha [3] [%]	pest or weed control at 15.625 g/ha [4] [%]	pest or weed control at 62.5 g/ha [4] [%]	pest or weed control at 250 g/ha [4] [%]	pest or weed control at 15.625 g/ha [5] [%]	pest or weed control at 62.5 g/ha [5] [%]	pest or weed control at 250 g/ha [5] [%]	pest or weed control at 15.625 g/ha [6] [%]	pest or weed control at 62.5 g/ha [6] [%]	pest or weed control at 250 g/ha [6] [%]	pest or weed control at 15.625 g/ha [7] [%]	pest or weed control at 62.5 g/ha [7] [%]	other results
COc1cc(Cl)cc(C2CN(C)C(=O)C2C(=O)Nc2cccc(F)c2F)c1 (stereo not drawn) [Compound 1690]	0	0	20	0	20	70	0	0	0	70	80	90	50	80	90	0	0	30	0	20	pest or weed control at 250 g/ha [7]: 40%; plant injury at 15.625 g/ha [8]: 10%; plant injury at 62.5 g/ha [8]: 70%; plant injury at 250 g/ha [8]: 80%; pest or weed control at 15.625 g/ha [9]: 20%; pest or weed control at 62.5 g/ha [9]: 70%; pest or weed control at 250 g/ha [9]: 60%; pest or weed control at 15.625 g/ha [10]: 80%; pest or weed control at 62.5 g/ha [10]: 80%; pest or weed control at 250 g/ha [10]: 90%; pest or weed control at 15.625 g/ha [11]: 70%; pest or weed control at 62.5 g/ha [11]: 80%; pest or weed control at 250 g/ha [11]: 90%; pest or weed control at 15.625 g/ha [12]: 0%; pest or weed control at 62.5 g/ha [12]: 20%; pest or weed control at 250 g/ha [12]: 40%
Cc1c(F)cccc1NC(=O)[C@@H]1C(=O)N(C)C[C@H]1c1cccc(OCC2CC2)c1 (racemic) [Compound 1766]	0	0	0	20	10	20	0	0	0	30	70	70	10	60	80	0	0	10	0	0	pest or weed control at 250 g/ha [7]: 20%; plant injury at 15.625 g/ha [8]: 30%; plant injury at 62.5 g/ha [8]: 20%; plant injury at 250 g/ha [8]: 60%; pest or weed control at 15.625 g/ha [9]: 0%; pest or weed control at 62.5 g/ha [9]: 20%; pest or weed control at 250 g/ha [9]: 40%; pest or weed control at 15.625 g/ha [10]: 20%; pest or weed control at 62.5 g/ha [10]: 50%; pest or weed control at 250 g/ha [10]: 80%; pest or weed control at 15.625 g/ha [11]: 60%; pest or weed control at 62.5 g/ha [11]: 30%; pest or weed control at 250 g/ha [11]: 80%; pest or weed control at 15.625 g/ha [12]: 0%; pest or weed control at 62.5 g/ha [12]: 0%; pest or weed control at 250 g/ha [12]: 10%

Reference: US12077503B2, “Substituted cyclic amides and their use as herbicides” (FMC CORPORATION, priority 2015, dated 2024)
